Results taken from patent US6562464B1, “Utilization of phenylglyoxalic acid esters as photoinitiators” (BASF Aktiengesellschaft, priority 1999, dated 2003).
Read-outs that look alike come from different tables or passages of the source.

Tests used:
Type in all cases: physicochemical
[1] = Weight loss after 3 hours at 130° C.
Procedure: 12.0 g of pentaerythritol, 42.8 g of phenylglyoxylic acid and 0.27 g of sulfuric acid are suspended in 17.8 g of methylcyclohexane and the suspension is heated under reflux. The water of esterification is removed via a separating vessel, so that the esterification reaction is at an end after 8 hours. Distillation of the methylcyclohexane leaves a solid melt (acid number 25 mg KOH/g). The weight loss after 3 hours at 130° C. is 7.3%.
21.4 g of 1,4-butanediol diglycidyl ether (Araldit DY026) are mixed with 30 g of phenylglyoxylic acid in the presence of 0.5 g of tetrabutylammonium bromide. The mixture is cautiously heated to 103° C. and is held at this temperature for 5 hours until the acid number has fallen to 7.2 mg KOH/g. The product is a highly viscous liquid (153.6 Pas). The weight loss after 3 hours at 130° C. is 0.7%.
28.84 g of 1,4-bis(hydroxymethyl)cyclohexane, 72.23 g of methyl phenylglyoxylate and 0.82 g of dibutoxydibutyltin are melted over 180° C. in a reaction flask and methanol is distilled off via a column. After virtually all of the theoretical amount of methanol has passed over, the residue is concentrated on a rotary evaporator, the concentrate is digested in ethanol, and the resulting solid is filtered off with suction. The IR and H-NMR spectra correspond to the expected structure. The melting point is 92° C. The weight loss after 3 hours at 130° C. is 0.5%.

[2] = Solubility in Laromer LR 8987
Excerpt: Using a box-type coating bar, a glass plate was coated with this formulation so as to form a film having a thickness of 50 μm or 100 μm. This film was subsequently cured in an IST belt exposure unit at 10 m/min under air.
4 parts of 4,4′-isopropylidenedicyclohexanol di(phenylglyoxylate) [hydrogenated bisphenol-A-di(phenylglyoxylate)] were insoluble in 96 parts of Laromer LR 8987. Therefore, radiation curing was not possible.
However, the solubility was sufficient to prepare and cure a film as described above.

[3] = Solubility in hexanediol diacrylate (HDDA); parameters: key: sol = soluble; insol = insoluble
Excerpt: a) Solubility in hexanediol diacrylate (HDDA)

[4] = Solubility in an aliphatic urethane acrylate; settings: 2%
Procedure: b) The solubility of 2% each of 1,4-cyclohexanedimethanol di(phenylglyoxylate) and 4,4′-isopropylidenedicyclohexanol di(phenylglyoxylate) in an aliphatic urethane acrylate was also tested.

Molecule	weight loss after 3 hours at 130° C. [1] [%]	solubility in Laromer LR 8987 ([2]; 4 parts in 96 parts of Laromer LR 8987 (mixture of hexanediol diacrylate and an aliphatic urethane acrylate))	Solubility in hexanediol diacrylate (HDDA) ([3]; 1%)	Solubility in hexanediol diacrylate (HDDA) ([3]; 2%)	solubility in an aliphatic urethane acrylate [4]	solubility in Laromer LR 8987 [2]	Solubility in hexanediol diacrylate (HDDA) ([3]; 3%)
1,4-Butanediol Diglycidyl Ether Diglyoxylate [Example 2]	0.7	–	–	–	–	–	–
4,4′-isopropylidenedicyclohexanol di(phenylglyoxylate)	–	insoluble	sol	in-	insoluble or did not dissolve completely	–	–
O=C(OC1CCC(OC(=O)C(=O)c2ccccc2)CC1)C(=O)c1ccccc1 (stereo not shown) [1,4-cyclohexanediol di(phenylglyoxylate)]	–	–	sol	sol	–	did not dissolve completely	in-
O=CC(=O)OCC(COC(=O)C=O)(COC(=O)C=O)COC(=O)C=O [Example 1, Pentaerythritol Tetraglyoxylate]	7.3	–	–	–	–	–	–
